From PMC4549712, “Inhibition of human GLUT1 and GLUT5 by plant carbohydrate products; insights into transport specificity” (Scientific Reports, 2015)
Values joined by “and” are separate entries in the source; they are usually repeats but may differ in a detail not shown here. Identical values can stand only once. “Also recorded” adds a separate entry of the source.

Columns and labels:
human GLUT5 = biological target: T1, human GLUT5 (Homo sapiens, UniProt P22732); test: entrance counter-flow transport assay, GLUT5-mediated fructose transport in proteoliposomes; type: biochemical
T1 construct: Full length DNA was subcloned into pFastBac1 (Life Technologies) vector with a N-terminal hexahistidine tag; hexahistidine (thrombin-cleavable) (N, cleaved yes); made in house; host or cells: Sf21 insect cells (baculovirus, pFastBac1)
T1 sequence (P22732 1-501): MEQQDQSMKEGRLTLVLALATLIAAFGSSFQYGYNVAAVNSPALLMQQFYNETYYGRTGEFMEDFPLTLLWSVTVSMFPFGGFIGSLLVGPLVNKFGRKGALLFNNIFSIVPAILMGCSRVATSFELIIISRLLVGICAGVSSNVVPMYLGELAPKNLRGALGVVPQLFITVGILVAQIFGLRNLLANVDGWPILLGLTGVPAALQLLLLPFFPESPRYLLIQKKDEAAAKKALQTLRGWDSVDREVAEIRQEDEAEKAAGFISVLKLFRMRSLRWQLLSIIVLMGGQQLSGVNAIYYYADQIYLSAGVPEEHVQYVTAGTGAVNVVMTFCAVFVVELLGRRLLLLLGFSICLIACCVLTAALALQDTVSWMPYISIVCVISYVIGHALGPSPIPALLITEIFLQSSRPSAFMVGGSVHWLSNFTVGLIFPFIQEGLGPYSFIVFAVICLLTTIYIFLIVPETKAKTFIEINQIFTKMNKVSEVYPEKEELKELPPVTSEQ
From the text: Human GLUT1 and GLUT5 were expressed recombinantly in insect cell culture. The purified proteins were reconstituted into proteoliposomes. To measure the inhibition of GLUT1 or GLUT5 transport activity we used entrance counter-flow transport assay.
Proteoliposomes were generated according to the protocol from[30] with minor modifications. Liposomes were produced from a 95/5% (w/w) mix of soy phosphatidylcholine and cholesterol (Avanti Polar Lipids). Briefly, hexane-washed and vacuum-dried lipids were resuspended to 20 mg/ml in 100 mM KPi (pH 7.5), and then subjected to 11 freeze-and-thaw cycles in liquid nitrogen and room temperature water. The lipid mixture was extruded through a 0.1 μm polycarbonate filter. Prepared liposomes were destabilized with 4 mM Triton X-100 and mixed with purified protein in a 100:1 (w/w) ratio in 100 mM KPi (pH 7.5) 20% (v/v) glycerol, 200 mM (glucose or fructose). Detergent was removed by several additions of SM2 BioBeads (BioRad) and incubated overnight at 4 °C. After filtering out the BioBeads, proteoliposomes were diluted with 100 mM KPi (pH 7.5) 200 mM (glucose or fructose), and then collected by ultracentrifugation, at 200,000 × g and 4 °C, for 1 hour. The proteoliposomes pellet was resuspended in the above buffer so that O.D.600nm was ~30.
To measure hexose transport, we utilized entrance counter-flow assay. Transport was performed in a volume of 100 μL of 100 mM KPi (pH 7.5) buffer containing radioactive ^14C-hexose (4 μM fructose or 5 μM glucose) with inhibitors added before initiation of transport. […] The reaction was started by the addition of 3 μL concentrated proteoliposomes to the above solution and incubated at room temperature; the transport was stopped after one minute by addition of ice-chilled quench buffer [100 mM KPi (pH 5.5) and 100 mM LiCl]. The solution was filtered through a 0.4 μm pore size cellulose nitrate membrane filter (Whatman), and the filter was washed three times with quench buffer. The membrane filter was placed into a vial filled with BioSafe II scintillation liquid (Research Products International Corp.), and radioactivity was quantified with LS 6500 scintillation counter (Beckman). […] Data is presented as relative activity normalized to radioactivity of no inhibitor added as 100% and empty proteoliposomes as 0%. Kinetic parameters were fitted by nonlinear algorithm plots using Prism (GraphPad Software).

GLUT1W388A = biological target: T2, GLUT1W388A (Homo sapiens, UniProt P11166, W388A); test: entrance counter-flow transport assay, glucose transport by GLUT1W388A proteoliposomes; type: biochemical; settings: any tested concentration, up to 20 mM
T2 construct: Full length DNA was subcloned into pFastBac1 (Life Technologies) vector with a N-terminal hexahistidine tag; hexahistidine (thrombin-cleavable) (N, cleaved yes); made in house; host or cells: Sf21 insect cells (baculovirus, pFastBac1)
T2 sequence (P11166 1-492 W388A): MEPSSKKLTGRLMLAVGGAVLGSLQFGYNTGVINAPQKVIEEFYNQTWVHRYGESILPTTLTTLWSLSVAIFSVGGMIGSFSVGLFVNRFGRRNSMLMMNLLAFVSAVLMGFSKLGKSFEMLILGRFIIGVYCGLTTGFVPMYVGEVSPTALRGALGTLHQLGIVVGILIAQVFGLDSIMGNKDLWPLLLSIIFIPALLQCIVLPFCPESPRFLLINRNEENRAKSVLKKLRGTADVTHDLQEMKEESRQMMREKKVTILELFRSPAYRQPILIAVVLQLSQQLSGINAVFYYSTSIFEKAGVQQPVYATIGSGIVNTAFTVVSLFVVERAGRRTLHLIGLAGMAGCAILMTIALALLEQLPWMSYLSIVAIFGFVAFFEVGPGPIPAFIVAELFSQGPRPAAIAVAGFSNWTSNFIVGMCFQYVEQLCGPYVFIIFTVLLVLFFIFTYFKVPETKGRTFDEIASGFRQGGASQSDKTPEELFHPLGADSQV
Experimental: We expressed and purified GLUT1W388A and GLUT5A396W. Purified mutant proteins were reconstituted into proteoliposomes and activity was determined by entrance counter-flow transport assay.
cDNAs of GLUT1 and GLUT5 were purchased from Open Biosystems (GE Healthcare). Full length DNA was subcloned into pFastBac1 (Life Technologies) vector with a N-terminal hexahistidine tag. Bacmids were generated in DH10Bac E. coli cells (Life Technologies). Baculoviruses were produced using Cellfectin II Reagent and amplified in Sf21 insect cells (Life Technologies). Cells were maintained at 26 °C, and P1 (10^6 pfu/mL) was collected from infected cells after 72 hours. Sf21 cells were propagated in HyClone SFX-Insect media (GE Healthcare), supplemented with 5% fetal bovine serum (Biowest), antibiotics (100 units/mL Penicillin G and 100 μg/mL streptomycin sulfate) and amphotericin B (2.5 μg/mL). For recombinant protein expression, Sf21 cells in suspension culture at 2 × 10^6 cells/ml were infected with P3 viral stock (10^8 pfu/mL), at an MOI of 1.0 pfu/cell. Four days after viral infection, cells from 2 L culture were collected by centrifugation at 2,000 × g and 25 °C. […]

For C=C1C[C@@]23CC[C@H]4[C@@](C)(CCC[C@@]4(C)C(=O)O[C@@H]4O[C@H](CO)[C@@H](O)[C@H](O)[C@H]4O)[C@@H]2CC[C@]1(O[C@@H]1O[C@H](CO)[C@@H](O)[C@H](O)[C@H]1O)C3 [Rub, Rubusoside], the “inhibition of GLUT5 fructose transport activity” value (human GLUT5; added at 20 mM) was “reducing activity to background levels”, the IC50 (human GLUT5; entrance counter-flow) was 6.7 mM and ~5 mM and 5 mM and the “inhibition of glucose transport by GLUT1W388A” value (GLUT1W388A) was “not inhibited; also recorded: did not inhibit”.
